Values quoted from earlier work, collected in US20110302824A1, “PROCESS FOR LIQUEFYING A CELLULOSIC MATERIAL” (SHELL OIL COMPANY, priority 2010, published 2011).

Conditions: polarity of the (co-)solvent of the liquefaction medium; octanol-water

SMILES | Solvent Log P
CCCCCCCCCCCC [w/C12, dodecane] | 6.1
CC1CCC(=O)O1 (centres unmarked) [w/gVL, gamma-valerolactone] | −0.6
